From PMC10119423, “From PERK to RIPK1: Design, synthesis and evaluation of novel potent and selective necroptosis inhibitors” (Frontiers in Chemistry, 2023)
Like-named read-outs stand apart in the source and are kept apart here.

Assays:
RIPK1 = target: T1, RIPK1 (Mus musculus, UniProt Q60855); assay: RIPK1 autophosphorylation (pS166) by Western blot in MEFs stimulated with hTNF + TAK1i + zVAD.fmk; format: cell-based; conditions: immortalised MEFs, 30 min pretreatment with zVAD.fmk 50 μM, TAK1i 1 μM and compound, hTNF 20 ng/ml for 2.5 h, read-out: RIPK1 inhibition (IC50 estimated from a Western blot)
T1 construct: endogenous in cells; host or cells: immortalized mouse embryonic fibroblasts (MEFs, C57Bl6/J)
T1 sequence (Q60855 1-656): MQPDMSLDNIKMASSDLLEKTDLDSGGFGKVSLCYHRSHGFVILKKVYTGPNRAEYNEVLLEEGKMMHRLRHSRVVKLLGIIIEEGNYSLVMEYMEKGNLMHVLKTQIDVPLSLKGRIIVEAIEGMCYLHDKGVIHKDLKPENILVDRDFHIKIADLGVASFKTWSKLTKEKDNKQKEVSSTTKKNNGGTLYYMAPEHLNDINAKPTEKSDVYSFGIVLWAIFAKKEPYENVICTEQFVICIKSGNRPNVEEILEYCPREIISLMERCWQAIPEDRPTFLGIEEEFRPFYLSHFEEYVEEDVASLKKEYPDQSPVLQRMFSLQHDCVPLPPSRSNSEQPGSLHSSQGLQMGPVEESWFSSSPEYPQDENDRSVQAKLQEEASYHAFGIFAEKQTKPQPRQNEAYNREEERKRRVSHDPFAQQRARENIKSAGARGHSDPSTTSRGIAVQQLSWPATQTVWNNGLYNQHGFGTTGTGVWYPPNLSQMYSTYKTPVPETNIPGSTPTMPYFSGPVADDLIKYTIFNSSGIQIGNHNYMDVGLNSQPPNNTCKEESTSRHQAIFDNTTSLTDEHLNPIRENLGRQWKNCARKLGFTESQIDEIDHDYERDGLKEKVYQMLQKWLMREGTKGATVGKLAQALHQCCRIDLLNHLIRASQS
Experimental: MEFs were seeded in 6-well plates at a density of 300.000 cells/well in 2 mL. The next day, the cells were suspended in 1 mL of medium and pre-treated for 30 min with the indicated compounds at 1/5 dilutions series for PERK ranging from 5 to 0.04 µM and 1 μg/mL of Tm followed by 4 h treatment with 20 ng/mL of hTNF. For RIPK1, the cells were pre-treated at 1/10 dilutions series ranging from 10 to 0.01 nM, 50 µM zVAD.fmk and 1 µM TAKi before stimulation with 20 ng/mL of hTNF for 2.5 h. Then, the cells were washed two times with 1 mL of ice-cold PBS before lysis in 0.2 mL of Laemmli buffer 1x (10% (w/v) SDS, 50% glycerol, 0.5% bromophenol blue, 250 mM Tris–HCl pH 6.8) and 250 mM of dithiothreitol (DTT). The cell lysate was then collected and boiled at 95 °C for 10min and stored at −20°C. Proteins expression was later monitored by immunoblotting.
Activation of PERK was induced by stimulation of the cells with Tunicamycin, as previsouly reported ([Bull and Thiede, 2012]). More precisely, the immortalised MEFs were pre-incubated for 30 min with the analogues 18–34 at different concentrations (0.04, 0.2, 1, and 5 µM) prior to 4 h stimulation with Tunicamycin (1 μg/mL). […] Their activities were evaluated by comparing the intensity of the signal to unstimulated MEFs (considered as zero phosphorylation) and Tunicamycin stimulated cells (considered as 100% PERK phosphorylation). The 12 compounds (18–20, 22–29 and 34) that had lost their inhibitory capacity on PERK were then tested for their ability to inhibit RIPK1 as shown in Figures 6A–H. Activation and autophosphorylation of RIPK1 was induced by stimulating the cells with TNF in the presence of TAK1 inhibitor and of the pan-caspases inhibitor zVAD.fmk, a well established necroptotic trigger ([Vanlangenakker et al., 2011]). The MEFs were pre-incubated for 30 min with the different compounds (0.01 nM–1000 nM) and then stimulated with human TNF (20 ng/mL) for 2.5 h. Similar to the PERK assessment, IC50 values for RIPK1 inhibition were estimated as a range of concentrations, and are reported in Table 1. These experiments provide an estimation of the specificity of our analogues against PERK and RIPK1 in comparison to the benchmark GSK’157 already reported as a potent PERK and RIPK1 inhibitor.

immortalized MEFs = assay: RIPK1 kinase-dependent necroptosis (hTNF + zVAD.fmk) in MEFs, Sytox Green; format: cell-based, mouse; conditions: Mus musculus, 24 h;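 further: cell death taken as background-corrected Sytox Green fluorescence relative to the maximal signal of cells fully permeabilized with 0.1% Triton X-100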
Experimental: In brief, the cells were seeded in duplicate at 10,000 cells per well in a 96-well adherent plate and incubated overnight at 37°C with 5% CO2. […] All the compound stock solutions were prepared in DMSO at 200 µM concentration. After stimulating the cells with human TNF at 20 ng/mL the plate was transferred to the incubator. […] The cell death was calculated by subtracting the background fluorescence from the induced Sytox Green fluorescence and by dividing the obtained result by the maximal fluorescence (minus the background fluorescence) obtained by permeabilization of the cells by using Triton X-100 at a final concentration of 0.1%. Curves were plotted in GraphPad 9 for the IC50 calculation.
Consequently, the compounds were evaluated for their potential protection of RIPK1-mediated necroptosis following human TNF stimulation.

MEFs = assay: RIPK1 kinase-dependent apoptosis (hTNF + TAK1i) in MEFs, Sytox Green; format: cell-based; conditions: Mus musculus, TAK1i + hTNF (100 pg/mL)
Text: In MEFs, TNF together with the pan caspases inhibitor zVAD.fmk induces RIPK1-dependent necroptosis while TNF together with TAK1 inhibitor induces RIPK1 kinase-dependent apoptosis. We also included the conditions selected for the Western blot experiments, where necroptosis was induced by the combination of hTNF, zVAD.fmk and TAK1 inhibitor.

RIPK1 (h) = target: T2, RIPK1 (h) (Homo sapiens, UniProt Q13546); assay: KinaseProfiler assay (Eurofins Cerep), hRIPK1 inhibition; format: biochemical; conditions: 9 concentrations (0.0001 μM–1.0 μM), 10 μM ATP
T2 construct: purchased Eurofins Cerep (KinaseProfiler service)
T2 sequence (Q13546 1-671): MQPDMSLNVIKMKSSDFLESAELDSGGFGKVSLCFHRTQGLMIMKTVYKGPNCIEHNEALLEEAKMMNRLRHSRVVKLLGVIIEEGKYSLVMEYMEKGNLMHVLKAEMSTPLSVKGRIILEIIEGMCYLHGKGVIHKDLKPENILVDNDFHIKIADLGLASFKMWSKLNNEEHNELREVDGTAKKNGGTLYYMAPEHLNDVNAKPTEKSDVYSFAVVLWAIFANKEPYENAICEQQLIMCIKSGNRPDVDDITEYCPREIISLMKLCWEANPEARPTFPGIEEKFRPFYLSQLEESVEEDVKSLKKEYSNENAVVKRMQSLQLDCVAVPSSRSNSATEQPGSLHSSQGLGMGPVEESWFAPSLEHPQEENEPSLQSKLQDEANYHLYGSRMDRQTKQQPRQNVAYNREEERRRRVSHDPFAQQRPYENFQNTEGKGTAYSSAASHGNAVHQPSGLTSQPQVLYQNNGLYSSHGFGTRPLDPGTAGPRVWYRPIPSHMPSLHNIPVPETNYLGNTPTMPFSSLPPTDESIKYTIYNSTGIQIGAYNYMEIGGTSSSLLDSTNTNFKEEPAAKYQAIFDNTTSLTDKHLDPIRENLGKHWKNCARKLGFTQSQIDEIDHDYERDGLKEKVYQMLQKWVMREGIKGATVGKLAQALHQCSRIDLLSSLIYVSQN
Experimental: RIPK1 (h) is incubated with 8 mM MOPS pH 7.0, 0.2 mM EDTA, 0.33 mg/mL myelin basic protein, 10 mM Magnesium acetate and [γ-^33P-ATP] (specific activity and concentration as required). The reaction is initiated by the addition of the Mg/ATP mix. After incubation for 120 min at room temperature, the reaction is stopped by the addition of phosphoric acid to a concentration of 0.5%.

IC50 (RIPK1 (h)): 139 nM
Structure (SMILES): Cn1cc(-c2ccc3c(c2F)CCN3C(=O)Cc2ccc(C(F)(F)F)cn2)c2c(N)ncnc21 [Compound 22]
IC50 (RIPK1): 1 to 10 nM | IC50 (immortalized MEFs; immortalized MEFs, zVAD-fmk 50 μM + hTNF 20 ng/ml, Sytox Green at 24 h, Table 1 series, read-out: IC50 necroptosis): 2.9 nM | IC50 (immortalized MEFs; MEFs, hTNF + zVAD.fmk (20 ng/mL), Table 2, read-out: Necroptosis hTNF + zVAD.fmk MEFs IC50): 1.06 nM | IC50 (MEFs): 3.3 nM
